≈ marks a conversion by molar mass, not a printed value.
Tests used:
[1] = system: Aspergillus (Pepsi Isolate); assay: 16 week mold spore challenge MIC in beverage; type: cell-based, Aspergillus niger; details: pH 3.4, read-out: 16 week incubation MIC (ppm)
Text: (§1) A 2% fruit juice based non-carbonated beverage of pH 3.4 and about 12 Brix was formed by combining the following ingredients.
(§2) The preparation of beverage was divided into two aliquots.
(§3) Each of 24 such preparations was then divided equally across 8 separate tubes making for 192 samples. […] The tubes were sealed in a manner that prohibits moisture evaporation.
(§4) The mold spores employed were obtained from the following organisms. Aspgergillus niger isolate of Pepsi; ATCC strain 90900 (Talaromyces spectabilis), ATCC strain 48441 (Pencillium galbrum), ATCC 24088 (Byssochlamys fulva), ATCC 96468 (Neosartorva fischeri) ATCC strain 96463 (Talaromyces flavus) and ATCC strain ATCC 10512 (Talaromyces flavus var. flavus). Each spore type was present at 20 spores per milliliter.

[2] = system: Penicillium glabrum ATCC 48441; assay: 16 week mold spore challenge MIC in beverage; type: cell-based; details: ATCC48441, pH 3.4, read-out: 16 week incubation MIC (ppm)
Text: as §1, §2, §3, §4

[3] = system: Talaromyces spectabilis ATCC 90900; assay: 16 week mold spore challenge MIC in beverage; type: cell-based; details: Paecilomyces variotii, ATCC90900, pH 3.4; read-out: 16 week incubation MIC (ppm)
Text: as §1, §2, §3, §4

[4] = system: Byssochlamys fulva ATCC 24088; assay: 16 week mold spore challenge MIC in beverage; type: cell-based; details: Paecilomyces fulvus, ATCC 10099 / ATCC 24088, pH 3.4; read-out: 16 week incubation MIC (ppm)
Text: as §2, §3, §4
(§5) The second aliquot of beverage is identical to the 1st aliquot except for the presence of cyclodextrin-pimaricin complex. […] Each of 36 such preparations was then divided equally across 8 separate tubes making for 288 samples. […] The tubes were sealed in a manner that prohibits moisture evaporation.
(§6) The mold spores employed were obtained from the following organisms Paecilomyces puntoni (Pepsi isolate D3), ATCC 36614 (Byssochlamys nieva) ATCC 24088 (Byssochlamys fulva), ATCC 96468 (Neosartorya fischeri) ATCC strain 96463 (Talaromyces flavus) and ATCC strain ATCC 10512 (Talaromyces flavus var. flavus). Each spore type was present initially at 20 spores per milliliter of product. Spores for Byssochlamys nieva were developed at both 25° C. on Potato Dextrose and 30° C. on Malt Extract in order to ensure some variation in the ratio of asci (ascospores) to conidiospores. […]
(§7) One sample remained un-inoculated and served as a negative control. […] These samples served as the positive controls in this test. […]
(§8) After inoculation with spores from various mold, samples were incubated at 25-27° C. for a period of 16 weeks before.
(§9) As outlined previously, two separate aliquots of beverage were formulated, one containing Pimaricin in complex with g-cyclodextrin and one without. Both aliquots contained 30 ppm Cinnamic acid.

[5] = system: Neosartorya fischeri ATCC 96468; assay: 16 week mold spore challenge MIC in beverage; type: cell-based; details: Aspergillus fischeri, ATCC96468, pH 3.4; read-out: 16 week incubation MIC (ppm)
Text: as §2, §3, §4, §5, §6, §7, §8, §9

[6] = system: Talaromyces flavus ATCC 96463; assay: 16 week mold spore challenge MIC in beverage; type: cell-based; details: ATCC96463, pH 3.4, read-out: 16 week incubation MIC (ppm)
Text: as §2, §3, §4, §5, §6, §7, §8, §9

[7] = system: Talaromyces flavus var. flavus ATCC 10512; assay: 16 week mold spore challenge MIC in beverage; type: cell-based; details: ATCC10512, pH 3.4, read-out: 16 week incubation MIC (ppm)
Text: as §2, §3, §4, §5, §6, §7, §8, §9

physchem = type: physicochemical
bio-indicator mold [8] = assay: Preservation of beverage for 16 weeks against the array of bio-indicator / spoilage organisms; type: cell-based
Text: As used herein, the terms “preserve,” “preservative,” and “preservation” refer to a food or beverage product protected against or a composition able to stop or completely prevent spoilage of a product that is the result of the growth of spoilage microorganisms for a period of at least 16 weeks. This period is in keeping with the time required to transport a beverage product from location of manufacture, through distribution channels, into the hand of the consumer. Absence of spoilage is noted by absence any evidence of growth of spoilage organisms (turbidity, viable count, direct microscopic count or other standard methods of enumeration) and by the absence of any discernable change in the product attributes that could be routinely attributed to metabolism of spoilage organisms.
as §3, §5
An apple juice based beverage was prepared to contain 30 ppm EDTA (0.003%) as shown below. The beverage was divided into two aliquots. […]

[9] = 25° C., pH approximately 6.4; cited from earlier work
[10] = purportedly; cited from earlier work
bio-indicator mold [11] = details: reported by the manufacturer of DMDC; cited from earlier work

Compound	MIC [1]	MIC [2]	MIC [3]	MIC [4]	MIC [5]	MIC [6]	MIC [7]	solubility (physchem; 4 °C, pH 3.4, aqueous buffer, thermodynamic from solid)	solubility at 24 h (physchem; 25 °C, pH 3.4, aqueous buffer, thermodynamic from solid)	solubility limit in high acid beverage (physchem; pH 3.4)	mold able to grow at highest concentration in solution (bio-indicator mold [8]; 20.0 ppm un-complexed Pimaricin, apple juice beverage pH 3.4)	minimum initial stand alone concentration needed to preserve product for 16 weeks (bio-indicator mold [8]; stand alone)	solubility in pure water [9]	pKa of carboxylic acid group [10]	concentration required to stabilize beverage for 16 weeks against vegetative yeast, mold and bacteria (bio-indicator mold [11])
CC1O[C@@H](O[C@H]2/C=C/C=C/C=C/C=C/C[C@@H](C)OC(=O)/C=C/[C@H]3O[C@@H]3C[C@H](O)C[C@]3(O)C[C@H](O)[C@@H](C(=O)O)[C@H](C2)O3)C(O)C(N)[C@@H]1O (stereo partly drawn) [Pimaricin]	18.4 µg/mL (≈ 27.6 µM)	5.7 µg/mL (≈ 8.56 µM)	10.3 µg/mL (≈ 15.5 µM)	16.9 µg/mL (≈ 25.4 µM)	> 20 µg/mL	> 20 µg/mL	> 20 µg/mL	10 µg/mL (≈ 15 µM)	20 µg/mL (≈ 30 µM)	~10 ppm	> 50%	400 mg pimaricin per liter	52 µg/mL (≈ 78.1 µM)	~6.5	
COC(=O)OC(=O)OC [DMDC, Dimethyl dicarbonate]															at least 250 mg/liter
